Molecular target: T1, full length G2019 human LRRK2 (Homo sapiens, UniProt Q5S007, R50H)
T1 construct: made in house; host or cells: HEK293 6E cells transduced with BacMam virus (virus generated in Sf9 cells)
Test: Full length G2019 human LRRK2 inhibition mass spectrometry assay
Type: biochemical
Settings: LRRKtide to phospho-LRRKtide conversion, RapidFire MS, 2 mM ATP
Description: a. Full Length G2019 Human LRRK2 Inhibition Mass Spectrometry Assay
This assay for Leucine Rich Repeat Kinase 2 (LRRK2) inhibition is based on the direct measurement of the peptide ‘LRRKtide’ (LRRKtide: RLGRDKYKT*LRQIRQ and “*” refers to the site of phosphorylation.) and phosphorylated ‘LRRKtide’ using a high throughput Rapid Fire mass spectrometry assay. Inhibitors are compounds that reduce the conversion of LRRKtide to phospho-LRRKtide.
• 1) Compounds were dissolved in 100% DMSO at a concentration of 10 mM, and 11-point dose response curves generated using a 1 in 4 serial dilution in DMSO. 100 nL of this dilution series was then added to a 384 well, v bottom polypropylene plate (Greiner 781280), excluding columns 6 and 18. 100 nL of DMSO were added to column 6 to serve as the high control, while column 18 served as the low control containing assay buffer in place of the LRRK2 protein. Assay dilution gave a top final assay concentration of test compound of […] • 2) 5 μL of ‘enzyme solution’ containing 2× final assay concentration of purified recombinant Full length Flag-LRRK2 in assay buffer (50 mM Hepes, pH 7.2, 10 mM MgCl2, 150 mM NaCl, 5% glycerol, 0.0025% Triton X-100 and 1 mM DTT) were added to all wells using a Multidrop Combi dispenser (ThermoFisher Scientifiec), giving a final assay concentration of 25 nM LRRK2 enzyme (final concentration may vary depending on specific activity of different enzyme batches). • 3) 5 μL of substrate solution containing 50 μM LRRKtide peptide substrate and […] was added to all wells of the plate using a Multidrop Combi dispenser giving a final assay concentration of 25 μM LRRKtide peptide and 2 mM ATP. Test plates were then incubated for 1 hour at room temperature. (Incubation may vary depending on rate and linearity of reaction with different enzyme batches). • 4) 50 μl of 1% formic acid in laboratory grade water was added to all wells to quench the reaction, and plates were heat-sealed prior to centrifugation at 1348×g for 10 minutes. Test plates were then analysed on an Agilent RapidFire High Throughput solid phase extraction system coupled to AB Sciex API 4000 triple quadropole mass spectrometer with the following setting:
• Sip Height=2 mm, Aspirate=500 ms, Load time=3000 ms, Elution time=3000 ms, Requilibration=500 ms. • Flow rates: pump 1=1.5 mL/min, pump 2 1.25 mL/min pump 3=0.8 mL/min
Mass Spectrometer Settings: • LRRKtide Detection settings: Q1 mass 644.8 Da, Q3 mass 638.8, declustering potential 76 volts, collision energy 37 volts, CXP 34 volts. • Phospho-LRRKtide Detection settings: Q1 mass 671.4 Da, Q3 mass 638.8, Declustering potential 76 volts, Collision energy 37 volts, CXP 34 volts. • A C4 cartridge was used and running buffers were: A (aqueous) 0.1% formic acid in water B (organic) 0.1% formic acid, 80% acetonitrile, 20% water. • Collision gas: 12, Curtain gas: 25, Ion Source gas (1): 60, Ion Source gas (2): 60, Ion Spray Voltage: 5500, Temperature: 600, Interface Heater: ON. • Resolution Q1: low, Resolution Q3: low. • 5) Data were analysed using ActivityBase software (IDBS). A percent conversion from LRRKtide to Phospho-LRRKtide was calculated using the following formula:
% conversion=(Phospho-LRRKtide product peak area/(Phospho-LRRKtide product peak area+LRRKtide substrate peak area))*100 • A logistic 4 parameter curve fit was applied, using the following formula,
[formula] • Where x is the concentration of test sample, y is inhibition (%), a is the minimum, b is the Hill slope, c is the IC50 and d is the maximum. From this, the pIC50 was derived (−log IC50).

T1 sequence (Q5S007 with tags, fused parts or gaps R50H): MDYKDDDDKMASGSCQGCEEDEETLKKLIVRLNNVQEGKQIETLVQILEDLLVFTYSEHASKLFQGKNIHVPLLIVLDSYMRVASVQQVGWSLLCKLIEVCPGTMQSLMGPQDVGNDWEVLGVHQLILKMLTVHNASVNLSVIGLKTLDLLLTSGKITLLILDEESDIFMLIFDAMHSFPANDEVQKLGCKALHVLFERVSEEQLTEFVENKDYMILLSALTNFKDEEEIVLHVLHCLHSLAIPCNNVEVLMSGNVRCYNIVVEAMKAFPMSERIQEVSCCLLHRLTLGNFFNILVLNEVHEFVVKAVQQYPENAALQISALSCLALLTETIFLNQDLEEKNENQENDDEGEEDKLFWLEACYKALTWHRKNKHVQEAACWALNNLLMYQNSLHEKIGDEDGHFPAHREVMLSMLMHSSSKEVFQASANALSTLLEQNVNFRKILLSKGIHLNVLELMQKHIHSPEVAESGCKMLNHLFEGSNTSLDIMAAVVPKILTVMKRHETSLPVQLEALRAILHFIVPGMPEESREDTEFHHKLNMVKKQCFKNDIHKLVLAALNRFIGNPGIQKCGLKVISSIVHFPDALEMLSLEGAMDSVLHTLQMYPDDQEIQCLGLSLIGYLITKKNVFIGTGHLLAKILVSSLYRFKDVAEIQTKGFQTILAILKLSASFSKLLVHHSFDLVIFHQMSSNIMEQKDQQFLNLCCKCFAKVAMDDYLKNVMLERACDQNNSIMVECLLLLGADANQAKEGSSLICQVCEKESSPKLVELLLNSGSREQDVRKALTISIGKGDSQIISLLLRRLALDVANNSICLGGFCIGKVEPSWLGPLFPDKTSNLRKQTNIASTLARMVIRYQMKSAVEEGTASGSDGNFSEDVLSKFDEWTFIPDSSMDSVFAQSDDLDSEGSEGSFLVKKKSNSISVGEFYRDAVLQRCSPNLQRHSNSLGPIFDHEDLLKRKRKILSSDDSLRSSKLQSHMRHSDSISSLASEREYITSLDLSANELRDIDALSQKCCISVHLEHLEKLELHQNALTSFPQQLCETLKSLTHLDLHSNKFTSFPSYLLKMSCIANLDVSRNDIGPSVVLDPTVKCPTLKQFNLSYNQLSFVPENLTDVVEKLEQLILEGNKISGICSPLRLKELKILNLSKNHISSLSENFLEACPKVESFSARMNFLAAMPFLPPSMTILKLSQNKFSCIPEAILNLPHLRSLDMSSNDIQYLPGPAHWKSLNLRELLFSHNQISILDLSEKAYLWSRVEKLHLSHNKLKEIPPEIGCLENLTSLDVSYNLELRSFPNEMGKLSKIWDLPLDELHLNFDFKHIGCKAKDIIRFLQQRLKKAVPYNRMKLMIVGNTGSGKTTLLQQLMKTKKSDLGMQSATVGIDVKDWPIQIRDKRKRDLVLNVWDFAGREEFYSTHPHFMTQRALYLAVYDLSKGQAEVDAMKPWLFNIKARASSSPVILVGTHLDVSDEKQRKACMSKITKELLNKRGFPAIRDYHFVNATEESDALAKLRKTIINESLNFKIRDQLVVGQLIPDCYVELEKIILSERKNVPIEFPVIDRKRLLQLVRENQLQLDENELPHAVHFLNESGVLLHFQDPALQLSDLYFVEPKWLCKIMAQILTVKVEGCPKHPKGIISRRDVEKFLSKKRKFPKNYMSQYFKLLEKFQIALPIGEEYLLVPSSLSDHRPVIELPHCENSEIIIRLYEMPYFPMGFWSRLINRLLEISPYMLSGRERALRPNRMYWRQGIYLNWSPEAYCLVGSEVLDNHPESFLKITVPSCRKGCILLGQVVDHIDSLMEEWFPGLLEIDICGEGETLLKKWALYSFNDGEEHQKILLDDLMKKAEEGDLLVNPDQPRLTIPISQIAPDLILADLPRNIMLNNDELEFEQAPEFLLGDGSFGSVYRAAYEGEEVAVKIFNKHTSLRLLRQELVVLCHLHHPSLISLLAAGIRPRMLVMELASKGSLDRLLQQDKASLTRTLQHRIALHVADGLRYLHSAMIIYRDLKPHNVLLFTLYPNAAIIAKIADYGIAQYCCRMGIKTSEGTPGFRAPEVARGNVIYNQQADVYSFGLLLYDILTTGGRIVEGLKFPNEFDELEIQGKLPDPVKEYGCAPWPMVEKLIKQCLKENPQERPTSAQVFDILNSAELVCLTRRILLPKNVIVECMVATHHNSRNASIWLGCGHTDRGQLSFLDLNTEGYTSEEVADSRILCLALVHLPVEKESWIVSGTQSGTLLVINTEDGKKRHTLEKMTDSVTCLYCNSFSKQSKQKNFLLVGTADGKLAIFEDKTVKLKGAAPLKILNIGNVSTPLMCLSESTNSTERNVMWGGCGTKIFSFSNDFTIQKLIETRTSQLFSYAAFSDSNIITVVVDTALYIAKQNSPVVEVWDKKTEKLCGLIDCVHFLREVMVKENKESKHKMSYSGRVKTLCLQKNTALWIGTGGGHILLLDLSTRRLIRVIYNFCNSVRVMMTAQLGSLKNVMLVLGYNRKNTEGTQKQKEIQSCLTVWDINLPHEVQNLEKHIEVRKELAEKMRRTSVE

| SMILES | IC50 |
| --- | --- |
| Cc1c2c(nn1CCN1CCOCC1)OCCC(C)Nc1nc(ncc1Cl)N2 (single isomer, unassigned) [E212, 14-Chloro-4,11-dimethyl-5-[2-(morpholin-4-yl)ethyl]-8-oxa-2,5,6,12,16,17-hexaazatricyclo[11.3.1.0^3,7] heptadeca-1(16),3,6,13(17),14-pentaene] | ≤ 10 µM |
| Cc1c2c(nn1CCN1CCC(F)(F)C1)OCCC(C)Nc1nc(ncc1Cl)N2 (single isomer, unassigned) [E214, 14-Chloro-5-[2-(3,3-difluoropyrrolidin-1-yl)ethyl]-4,11-dimethyl-8-oxa-2,5,6,12,16,17-hexaazatricyclo [11.3.1.0^3,7]heptadeca-1(16),3,6,13(17),14-pentaene] | ≤ 10 µM |
| Cc1c2c(nn1C1CCOCC1F)OCCCNc1nc(ncc1Cl)N2 (single isomer, unassigned) [E236, 14-Chloro-5-(3-fluorooxan-4-yl)-4-methyl-8-oxa-2,5,6,12,16,17-hexaazatricyclo[11.3.1.0^3,7]heptadeca-1(16),3,6,13 (17),14-pentaene] | ≤ 0.1 µM |
| Cc1c2c(nn1C1CC3CCC(C1)O3)OCCCNc1nc(ncc1Cl)N2 (single isomer, unassigned) [E244, 14-Chloro-4-methyl-5-{8-oxabicyclo[3.2.1]octan-3-yl}-8-oxa-2,5,6,12,16,17-hexaazatricyclo[11.3.1.0^3,7] heptadeca-1(16),3,6,13(17),14-pentaene] | ≤ 0.1 µM |
| Cc1c2c(nn1C1CCC(C)CC1)OCCCNc1nc(ncc1Cl)N2 (single isomer, unassigned) [E258, 14-Chloro-4-methyl-5-(4-methylcyclohexyl)-8-oxa-2,5,6,12,16,17-hexaazatricyclo[11.3.1.0^3,7]heptadeca-1(16),3,6,13 (17),14-pentaene] | ≤ 0.1 µM |
| Cc1c2c(nn1C1CCC(C)CC1)OCCC(C)Nc1nc(ncc1Cl)N2 (single isomer, unassigned) [E260, 14-Chloro-4,11-dimethyl-5-(4-methylcyclohexyl)-8-oxa-2,5,6,12,16,17-hexaazatricyclo[11.3.1.0^3,7] heptadeca-1(16),3,6,13(17),14-pentaene] | ≤ 0.1 µM |
| Cc1c2c(nn1C1CCC(C)CC1)OCCC(C)Nc1nc(ncc1Cl)N2 (single isomer, unassigned) [E261, 14-Chloro-4,11-dimethyl-5-(4-methylcyclohexyl)-8-oxa-2,5,6,12,16,17-hexaazatricyclo[11.3.1.0^3,7] heptadeca-1(16),3,6,13(17),14-pentaene] | ≤ 10 µM |
| Cc1c2c(nn1C1CCC(C)CC1)OCCC(C)Nc1nc(ncc1Cl)N2 (single isomer, unassigned) [E262, 14-Chloro-4,11-dimethyl-5-(4-methylcyclohexyl)-8-oxa-2,5,6,12,16,17-hexaazatricyclo[11.3.1.0^3,7] heptadeca-1(16),3,6,13(17),14-pentaene] | ≤ 10 µM |
| COC1CNc2nc(ncc2Cl)Nc2c(nn(C3COC3)c2C)OC1 (single isomer, unassigned) [E271, 14-Chloro-10-methoxy-4-methyl-5-(oxetan-3-yl)-8-oxa-2,5,6,12,16,17-hexaazatricyclo[11.3.1.0^3,7]heptadeca-1(16),3,6,13(17),14-pentaene] | ≤ 10 µM |
| COC1CNc2nc(ncc2Cl)Nc2c(nn(CC3(C)COC3)c2C)OC1 (single isomer, unassigned) [E272, 14-Chloro-10-methoxy-4-methyl-5-[(3-methyloxetan-3-yl)methyl]-8-oxa-2,5,6,12,16,17-hexaazatricyclo [11.3.1.0^3,7]heptadeca-1(16),3,6,13(17),14-pentaene] | ≤ 0.1 µM |
| COC1CNc2nc(ncc2Cl)Nc2c(nn(CC3(C)COC3)c2C)OC1 (single isomer, unassigned) [E273, 14-Chloro-10-methoxy-4-methyl-5-[(3-methyloxetan-3-yl)methyl]-8-oxa-2,5,6,12,16,17-hexaazatricyclo [11.3.1.0^3,7]heptadeca-1(16),3,6,13(17),14-pentaene] | ≤ 10 µM |
| COC1CNc2nc(ncc2Cl)Nc2c(nn(CC3CCOCC3)c2C)OC1 (single isomer, unassigned) [E275, 14-Chloro-10-methoxy-4-methyl-5-(oxan-4-ylmethyl)-8-oxa-2,5,6,12,16,17-hexaazatricyclo[11.3.1.0^3,7] heptadeca-1(16),3,6,13(17),14-pentaene] | ≤ 10 µM |

Next, values leading:

| IC50 | SMILES |
| --- | --- |
| 100 µM | Cc1c2c(nn1CCN1CCC(F)C1)OCCC(C)Nc1nc(ncc1Cl)N2 (single isomer, unassigned) [E216, 14-Chloro-5-[2-(3-fluoropyrrolidin-1-yl)ethyl]-4,11-dimethyl-8-oxa-2,5,6,12,16,17-hexaazatricyclo [11.3.1.0^3,7] heptadeca-1(16),3,6,13(17),14-pentaene] |
| ≤ 10 µM | Cc1c2c(nn1CCN1CCC(F)C1)OCCC(C)Nc1nc(ncc1Cl)N2 (single isomer, unassigned) [E217, 14-Chloro-5-[2-(3-fluoropyrrolidin-1-yl)ethyl]-4,11-dimethyl-8-oxa-2,5,6,12,16,17-hexaazatricyclo [11.3.1.0^3,7] heptadeca-1(16),3,6,13(17),14-pentaene] |
| ≤ 10 µM | COC1CNc2nc(ncc2C(F)(F)F)Nc2c(nn(C3CCCOC3)c2C)OC1 (single isomer, unassigned) [E228, 10-Methoxy-4-methyl-5-(oxan-3-yl)-14-(trifluoromethyl)-8-oxa-2,5,6,12,16,17-hexaazatricyclo [11.3.1.0^3,7] heptadeca-1(17),3,6,13,15-pentaene] |
| ≤ 10 µM | COC1CNc2nc(ncc2Cl)Nc2c(nn(C3CC4CCC(C3)O4)c2C)OC1 (single isomer, unassigned) [E246, 14-Chloro-10-methoxy-4-methyl-5-{8-oxabicyclo[3.2.1]octan-3-yl}-8-oxa-2,5,6,12,16,17-hexaazatricyclo [11.3.1.0^3,7]heptadeca-1(16),3,6,13(17),14-pentaene] |
| ≤ 10 µM | Cc1c2c(nn1C1CC3CCC(C1)O3)OCCC(C)Nc1nc(ncc1Cl)N2 (single isomer, unassigned) [E250, 14-Chloro-4,11-dimethyl-5-{8-oxabicyclo[3.2.1]octan-3-yl}-8-oxa-2,5,6,12,16,17-hexaazatricyclo[11.3.1.0^3,7] heptadeca-1(16),3,6,13(17),14-pentaene] |
| ≤ 0.1 µM | Cc1c2c(nn1C1CC3CCC(C1)O3)OCCC(C)Nc1nc(ncc1Cl)N2 (single isomer, unassigned) [E251, 14-Chloro-4,11-dimethyl-5-{8-oxabicyclo[3.2.1]octan-3-yl}-8-oxa-2,5,6,12,16,17-hexaazatricyclo[11.3.1.0^3,7] heptadeca-1(16),3,6,13(17),14-pentaene] |
| ≤ 10 µM | Cc1c2c(nn1CC(C)(C)O)OCCC(C)Nc1nc(ncc1Cl)N2 (single isomer, unassigned) [E264, 1-{14-Chloro-4,11-dimethyl-8-oxa-2,5,6,12,16,17-hexaazatricyclo[11.3.1.0^3,7]heptadeca-1(17),3,6,13,15-pentaen-5-yl}-2-methylpropan-2-ol] |
| ≤ 10 µM | COC1CNc2nc(ncc2Cl)Nc2c(nn(C3CCC(C(F)(F)F)CC3)c2C)OC1 (single isomer, unassigned) [E279, 14-Chloro-10-methoxy-4-methyl-5-[4-(trifluoromethyl)cyclohexyl]-8-oxa-2,5,6,12,16,17-hexaazatricyclo [11.3. 1.0^3,7]heptadeca-1(16),3,6,13(17),14-pentaene] |
